The numbers were not newly measured in US20100068291A1, “Oral Medicament Based on a Proton Pump Inhibitor” (FLAMEL TECHNOLOGIES, S.A., priority 2005, published 2010), which cites them from elsewhere.

For the data set the following is noted: in vivo.

In the case of `COc1ccc2[nH]c([S+]([O-])Cc3ncc(C)c(OC)c3C)nc2c1` (stereo not shown) [omeprazole], the plasma half-life was 0.5-1 H.
